How the values were obtained:
CCRF-CEM = assay: Tested for inhibition of compound against growth of CCRF-CEM cells at 1.0E-4 M; format: functional, Homo sapiens
L1210 = assay: Tested for inhibition of compound against growth of L1210 cells at 3.2E-5 M; format: functional, Mus musculus

For `NC(=O)CC1=Cc2c(ccc3ccc(O)cc23)C1`, which Inhibition (CCRF-CEM) is on record?
Its Inhibition is 25%.

What about the Inhibition (L1210) of the same compound?
Its Inhibition is 25%.

Reference: ChEMBL document CHEMBL1121433, “New cyclopenta[a]naphthalene derivatives. Synthesis of 2-(carbamylmethyl)-8-hydroxy-3H-cyclopental[a]naphthalene as a possible deoxyribonucleic acid binding agent” (1980)
